In ChEMBL document CHEMBL1955859, “Molecular modeling study of cyclic pentapeptide CXCR4 antagonists: new insight into CXCR4-FC131 interactions” (Bioorg Med Chem Lett, 2012):
pIC50: −log10 of the molar value.

Target: C-X-C chemokine receptor type 4 (Homo sapiens, UniProt P61073)
Assay: Antagonist activity at CXCR4
Format: functional

Chain of C-X-C chemokine receptor type 4 (P61073 whole entry): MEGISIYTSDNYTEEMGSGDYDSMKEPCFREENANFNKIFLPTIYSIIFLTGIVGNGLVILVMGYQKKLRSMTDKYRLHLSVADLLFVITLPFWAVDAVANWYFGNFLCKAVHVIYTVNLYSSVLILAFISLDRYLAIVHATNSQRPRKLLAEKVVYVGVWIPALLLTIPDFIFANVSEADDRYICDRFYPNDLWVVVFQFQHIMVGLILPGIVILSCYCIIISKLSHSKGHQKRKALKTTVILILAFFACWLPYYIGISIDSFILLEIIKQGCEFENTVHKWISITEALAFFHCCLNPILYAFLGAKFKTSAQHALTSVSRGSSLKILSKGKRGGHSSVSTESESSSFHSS

Molecule NC(N)=NCCC[C@@H]1NC(=O)[C@H](CCCN=C(N)N)NC(=O)[C@@H](Cc2ccccc2)NC(=O)CNC(=O)[C@H](Cc2ccc3ccccc3c2)NC1=O has a pIC50 of 7.29.
